Experimental data published in PMC6268140, “Absorption and Interaction of the Main Constituents from the Traditional Chinese Drug Pair Shaoyao-Gancao via a Caco-2 Cell Monolayer Model” (Molecules, 2012).

Legend:
P-glycoprotein (P-gp) = P-glycoprotein (P-gp) (Homo sapiens, UniProt P08183); settings: Caco-2, 4 h, 50 µM, pH 7.4
Source text: To determine whether P-gp is involved in the transport of these compounds, their transports were studied in the presence of verapamil, a known inhibitor for P-gp.
All data were presented as means ± SD. […] Results were considered significant at p < 0.05.

[1] = Transport across Caco-2 cell monolayers (A-B and B-A directions); settings: human; for Papp A→B at 4 h: Caco-2, pH 7.4; for efflux ratio at 4 h: Caco-2, pH 7.4, Efflux ratio PBA/PAB; for Papp at 4 h: mean ± SD, n = 3
Description: (§1) Cells were cultured in a humidified atmosphere of 5% CO2 and 95% air at 37 °C. The Dulbecco’s modified Eagle’s medium was supplemented with 10% (v/v) fetal bovine serum, 1% nonessential amino acids, 100 U/mL penicillin, and 100 µg/mL streptomycin. When the cell culture reached 80% confluence, it was rinsed with phosphate-buffered saline and split using trypsin. For transport experiments, the cells were seeded on 3 μm porous polycarbonate cell culture inserts from Nunc, which has a surface area of 4.2 cm^2 at a density of 2,500,000 cells/cm^2. The culture media was replaced every other day. The monolayers were ready for experiments from 19 to 22 days after seeding. Well-developed Caco-2 cell monolayers with transepithelial electrical resistance (TEER) values greater than 400 Ω × cm^2 were used for the experiment.
(§2) Paeoniflorin, glycyrrhizic acid, and liquiritin were dissolved in dimethyl sulfoxide (DMSO)-ethanol (v/v = 1/1) to prepare the stock solution (10 mM) for each single compound. The above-mentioned solutions were further diluted with Hank’s balanced salt solution (HBSS, pH = 7.4) to obtain a series of working standard solutions, and the final concentrations of paeoniflorin, glycyrrhizic acid, or liquiritin in the transport samples were 50 µM, 20 µM, or 50 µM, respectively. Moreover, the final concentrations of the organic solvent of different samples were controlled below 0.5% to ensure the safety to the cells.
(§3) Dry Shaoyao (100 g) or Gancao (100 g) herb materials were extracted twice with boiling water for 1 h each time, and the solutions were filtered through gauze. Then, the filtrates were merged and concentrated to 100 mL as the Shaoyao extract (1 g/mL) containing paeoniflorin (22.41 mg/mL) or Gancao extract (1 g/mL) containing glycyrrhizic acid (16.35 mg/mL) and liquiritin (22.38 mg/mL). Subsequently, the single extract or mixed extract was dissolved in HBSS (pH = 7.4) to obtain a series of working standard solutions, and the final concentrations of paeoniflorin, glycyrrhizic acid, or liquiritin in the transport samples were 50 µM, 22 µM, or 54 µM, respectively. In addition, the ratio of Shaoyao and Gancao in the mixed extract was 1:1. Meanwhile, testosterone (internal standard) was dissolved in acetonitrile with acetic acid (v/v = 94/6) to 100 µM. In addition, verapamil was dissolved in water to 5 mM when it was used.
(§4) The cell monolayers were washed three times with 37 °C HBSS (pH 7.4). The monolayers were incubated with the buffer for 1 h, and the incubation medium was then aspirated. Afterwards, a single component or extract solution was loaded on the apical or basolateral side. When the transport inhibitor (verapamil) was used, it was loaded only at the donor side. The amounts of transported drugs in the receiver media were determined by ultra-performance liquid chromatography (UPLC). In the test for each solution, four donor samples (400 μL) and four receiver samples (400 μL) were taken at time intervals of 1, 2, 3, and 4 h, followed by an immediate replacement with fresh donor solution (400 μL) to the donor side or fresh buffer (400 μL) to the receiver side.
(§5) To each transport sample (400 μL), 100 μL of acetonitrile containing 100 μM of testosterone was added as an internal standard and a preservative. The resulting mixture was vortexed for 30 s and then centrifuged at 15,000 rpm for 15 min, and the supernatant obtained was analyzed by UPLC.
(§6) UPLC was used to determine the concentration of the compounds in the transport samples.

Caco-2 cell monolayers = experiment: as above; settings: mixture of Shaoyao-Gancao extract vs. Gancao extract; 22 μM
Description: as §1, §2, §3, §4, §5, §6

[2] = single component solution, paeoniflorin 50 μM, glycyrrhizic acid 20 μM, liquiritin 50 μM
[3] = Caco-2, pH 7.4, Papp PAB, in the mixture of Shaoyao-Gancao extract (1:1), paeoniflorin 50 μM, glycyrrhizic acid 22 μM, liquiritin 54 μM
[4] = Caco-2, pH 7.4, Papp PAB, paeoniflorin in Shaoyao extract (50 μM), glycyrrhizic acid (22 μM) and liquiritin (54 μM) in Gancao extract
[5] = Caco-2, pH 7.4, Papp PBA (secretary permeability), single component solution, paeoniflorin 50 μM, glycyrrhizic acid 20 μM, liquiritin 50 μM, HBSS pH 7.4
[6] = Caco-2, pH 7.4, Papp PBA, in the mixture of Shaoyao-Gancao extract (1:1), paeoniflorin 50 μM, glycyrrhizic acid 22 μM, liquiritin 54 μM
[7] = Caco-2, pH 7.4, Papp PBA, paeoniflorin in Shaoyao extract (50 μM), glycyrrhizic acid (22 μM) and liquiritin (54 μM) in Gancao extract

Sequence of P-glycoprotein (P-gp) (P08183 whole entry): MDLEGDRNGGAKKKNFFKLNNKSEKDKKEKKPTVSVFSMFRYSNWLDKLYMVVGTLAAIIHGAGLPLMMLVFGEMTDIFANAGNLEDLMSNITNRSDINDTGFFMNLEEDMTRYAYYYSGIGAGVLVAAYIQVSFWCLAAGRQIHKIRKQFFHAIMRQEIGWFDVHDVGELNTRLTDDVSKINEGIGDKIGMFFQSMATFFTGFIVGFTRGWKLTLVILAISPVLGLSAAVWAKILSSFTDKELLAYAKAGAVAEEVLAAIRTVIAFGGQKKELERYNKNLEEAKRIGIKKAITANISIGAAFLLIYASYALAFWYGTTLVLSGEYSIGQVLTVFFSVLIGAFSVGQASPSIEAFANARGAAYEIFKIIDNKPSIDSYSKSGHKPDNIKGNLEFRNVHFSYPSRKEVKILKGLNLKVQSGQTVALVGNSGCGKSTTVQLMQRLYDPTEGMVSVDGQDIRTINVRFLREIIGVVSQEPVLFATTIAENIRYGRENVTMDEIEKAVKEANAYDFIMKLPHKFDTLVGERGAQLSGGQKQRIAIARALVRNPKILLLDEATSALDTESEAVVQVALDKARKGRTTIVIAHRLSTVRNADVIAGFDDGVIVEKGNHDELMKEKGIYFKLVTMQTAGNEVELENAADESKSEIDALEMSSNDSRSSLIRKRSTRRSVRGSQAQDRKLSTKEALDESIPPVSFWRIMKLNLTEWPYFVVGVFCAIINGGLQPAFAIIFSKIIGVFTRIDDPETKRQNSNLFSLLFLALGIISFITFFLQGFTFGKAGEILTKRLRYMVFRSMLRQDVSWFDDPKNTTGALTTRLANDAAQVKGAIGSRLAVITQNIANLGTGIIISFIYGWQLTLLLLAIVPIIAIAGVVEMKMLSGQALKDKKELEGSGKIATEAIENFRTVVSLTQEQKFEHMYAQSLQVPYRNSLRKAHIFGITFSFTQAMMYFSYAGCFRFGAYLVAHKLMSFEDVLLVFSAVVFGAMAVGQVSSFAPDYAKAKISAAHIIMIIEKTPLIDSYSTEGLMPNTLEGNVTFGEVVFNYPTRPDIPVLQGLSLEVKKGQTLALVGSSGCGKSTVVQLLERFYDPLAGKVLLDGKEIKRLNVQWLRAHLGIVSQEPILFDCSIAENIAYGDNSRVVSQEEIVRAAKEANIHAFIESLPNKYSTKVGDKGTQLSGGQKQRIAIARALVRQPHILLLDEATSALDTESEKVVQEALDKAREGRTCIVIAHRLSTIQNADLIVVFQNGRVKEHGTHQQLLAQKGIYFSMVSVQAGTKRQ

Decrease in the efflux ratio after addition of verapamil (P-glycoprotein (P-gp)) | Papp A→B at 4 h [1] | efflux ratio at 4 h [1, 2] | Papp at 4 h [1, 3] | Papp at 4 h [1, 4] | Papp at 4 h [1, 5] | Papp at 4 h [1, 6] | Papp at 4 h [1, 7] | Increase of PAB in the mixture compared to PAB in the Gancao extract (Caco-2 cell monolayers) | efflux ratio at 4 h, 22 µM ([1]; Caco-2, pH 7.4, Decrease of efflux ratio in the mixture compared to the Gancao extract, mixture of Shaoyao-Gancao extract vs. Gancao extract, 22 μM) | SMILES
60.47% | 0.73 ± 0.04 ×10⁻⁶ cm/s | 2.15 | 1.31 ± 0.06 ×10⁻⁶ cm/s | 1.2 ± 0.06 ×10⁻⁶ cm/s | 1.57 ± 0.05 ×10⁻⁶ cm/s | 1.58 ± 0.04 ×10⁻⁶ cm/s | 1.59 ± 0.02 ×10⁻⁶ cm/s |  |  | O=C1C[C@@H](c2ccc(O[C@@H]3O[C@H](CO)[C@@H](O)[C@H](O)[C@H]3O)cc2)Oc2cc(O)ccc21 [Liquiritin]
 | 0.36 ± 0.04 ×10⁻⁶ cm/s | 2.31 | 1.17 ± 0.08 ×10⁻⁶ cm/s | 0.41 ± 0.05 ×10⁻⁶ cm/s | 0.83 ± 0.07 ×10⁻⁶ cm/s | 1.21 ± 0.06 ×10⁻⁶ cm/s | 0.89 ± 0.04 ×10⁻⁶ cm/s | over two times | > 1 | CC1(C)[C@@H](O[C@H]2O[C@H](C(=O)O)[C@@H](O)[C@H](O)[C@H]2O[C@@H]2O[C@H](C(=O)O)[C@@H](O)[C@H](O)[C@H]2O)CC[C@]2(C)[C@H]3C(=O)C=C4[C@@H]5C[C@@](C)(C(=O)O)CC[C@]5(C)CC[C@@]4(C)[C@]3(C)CC[C@@H]12 [Glycyrrhizic acid]
54.29% | 0.61 ± 0.09 ×10⁻⁶ cm/s | 2.1 | 1.96 ± 0.08 ×10⁻⁶ cm/s | 0.94 ± 0.11 ×10⁻⁶ cm/s | 1.28 ± 0.05 ×10⁻⁶ cm/s | 1.77 ± 0.07 ×10⁻⁶ cm/s | 1.3 ± 0.02 ×10⁻⁶ cm/s |  |  | C[C@@]12C[C@@]3(O)O[C@@H](O1)[C@]1(COC(=O)c4ccccc4)[C@H]3C[C@@]12O[C@@H]1O[C@H](CO)[C@@H](O)[C@H](O)[C@H]1O [Paeoniflorin]
